Like-named read-outs stand apart in the source and are kept apart here.
Assay: Acute toxicity, single intravenous injection, LD50 (Bliss method) in Kunming mice
Format: in vivo
Conditions: for Dead animals on each day after the single intravenous injection (c3-c11 = day 1-9, c12 = day 10-14): 163.8 mg/kg; for LD50 at 2 weeks: Kunming, mouse, in vivo, iv
Experimental: To evaluate the in vivo acute, intravenous toxicity of DBTS and ACEA100108 (a derivative of DBTS, see Table 33), the experiments were performed in non-tumor bearing, normal Kunming mice by monitoring the acute response of mice to a single dose of DBTS or ACEA100108 via intravenous injection (i.v.). The number of death for the treated mice was monitored and recorded. LD50 values for these compounds were calculated. Details of the study are provided below.
The experiments to test DBTS and ACEA100108 acute toxicity were performed in mice. The test mice were randomly divided into six groups (five dosing groups and one control group). Each group contained 20 Kunming strain mice, and among them, 50% were male and 50% were female. After administration of a single dose of DBTS or ACEA100108 via intravenous injection (i.v.), the acute response to DBTS or ACEA100108 compound, and the death of the treated mice during the first two weeks were monitored and recorded. The LD50 value was calculated using the Bliss method.
Materials and Method. The test chemical compound were DBTS and ACEA100108, which were dissolved into hydrogenated castor oil in the pre-warmed water bath and made as a 20 mg/ml solution. The solution was further diluted to desired experiment concentrations with the normal saline. The administration volume was 0.5 ml i.v. per mouse and the injection speed was 0.5 ml/0.5 min.
The experimental mice were Kunming strain, provided by the Experimental Animal Department, Shanghai Pharmaceutical Industry Institute. The certificate number of the facility was Animal Facility Certification Number 107. The average weight of the mice was 18-20 gram. Each test group contained 20 Kunming strain mice, and among them, 10 mice were male and 10 mice were female. […] The mice in the control group were only given the same volume of the solvent, which were diluted hydrogenated castor oil. All the testing mice were given a single intravenous injection of DBTS, ACEA100108, or the solvent that served as the control at the injection speed of 0.5 ml/0.5 min. The acute response to DBTS, ACEA100108 or the solvent immediately after the administration, as well as weight change, and the death within the first two weeks of the administration were monitored and recorded. The intravenous injection LD50 values in mice were calculated using the Bliss method.

[1] = female, 163.8 mg/kg single i.v.
[2] = female, 204.8 mg/kg single i.v.

## c1ccc(CSSSCc2ccccc2)cc1 [DBTS, Dibenzyl trisulfide]
50% male, 50% female, 163.8 mg/kg single i.v.
  Percentage of dead animals %: 0%
50% male, 50% female, 20 animals, deaths on day 8 after injection
  Dead animals on each day after the single intravenous injection (c3-c11 = day 1-9, c12 = day 10-14): 0
50% male, 50% female, 20 animals, deaths on days 10-14 after injection
  Dead animals on each day after the single intravenous injection (c3-c11 = day 1-9, c12 = day 10-14): 0 - - - 0
50% male, 50% female, 204.8 mg/kg single i.v.
  Percentage of dead animals %: 15%
50% male, 50% female, 256 mg/kg single i.v.
  Percentage of dead animals %: 45%
50% male, 50% female, 320 mg/kg single i.v.
  Percentage of dead animals %: 85%
50% male, 50% female, 400 mg/kg single i.v.
  Percentage of dead animals %: 100%
Kunming mice, 50% male 50% female, Bliss method
  mouse single i.v. dose LD50, interval in parentheses: 234.96 to 284.56 mg/kg
Both sexes, 50% male, 50% female Kunming mice, single i.v., read-out: LD50
  LD50 at 2 weeks: 259 mg/kg
Both sexes, 50% male, 50% female Kunming mice, single i.v., read-out: LD50 (95% CL)
  LD50 at 2 weeks: 235 to 284 mg/kg
Both sexes, Kunming mice, 50% male 50% female, Bliss method, read-out: mouse single i.v. dose LD50, interval in parentheses
  LD50 at 2 weeks: 235 to 284 mg/kg
Both sexes, Kunming mice, 50% male 50% female, Bliss method, read-out: mouse single i.v. dose LD50 value
  LD50 at 2 weeks: 259 mg/kg
[1]
  Average animal weight (g) Beginning: 19.9 g
  Average animal weight (g) End: 24.5 g
  Percentage of dead animals %: 0%
female, 10 animals, deaths on day 8 after injection
  Dead animals on each day after the single intravenous injection (c3-c11 = day 1-9, c12 = day 10-14): 0
female, 10 animals, deaths on days 10-14 after injection
  Dead animals on each day after the single intravenous injection (c3-c11 = day 1-9, c12 = day 10-14): 0 - - - 0
[2]
  Average animal weight (g) Beginning: 20.5 g
  Percentage of dead animals %: 20%
female, 204.8 mg/kg single i.v., survivors
  Average animal weight (g) End: 24.3 g
female, 256 mg/kg single i.v.
  Average animal weight (g) Beginning: 19.9 g
  Percentage of dead animals %: 50%
female, 256 mg/kg single i.v., survivors
  Average animal weight (g) End: 24.2 g
female, 320 mg/kg single i.v.
  Average animal weight (g) Beginning: 20.6 g
  Percentage of dead animals %: 80%
female, 320 mg/kg single i.v., survivors
  Average animal weight (g) End: 24.5 g
female, 400 mg/kg single i.v.
  Average animal weight (g) Beginning: 19.8 g
  Percentage of dead animals %: 100%
female, female Kunming mice, single i.v., read-out: LD50
  LD50 at 2 weeks: 256 mg/kg
female, female Kunming mice, single i.v., read-out: LD50 (95% CL)
  LD50 at 2 weeks: 222 to 296 mg/kg
male, 163.8 mg/kg single i.v.
  Average animal weight (g) Beginning: 20.0 g
  Average animal weight (g) End: 26.9 g
  Percentage of dead animals %: 0%
male, 10 animals, deaths on day 8 after injection
  Dead animals on each day after the single intravenous injection (c3-c11 = day 1-9, c12 = day 10-14): 0
male, 10 animals, deaths on days 10-14 after injection
  Dead animals on each day after the single intravenous injection (c3-c11 = day 1-9, c12 = day 10-14): 0 - - - 0
male, 204.8 mg/kg single i.v.
  Average animal weight (g) Beginning: 19.9 g
  Percentage of dead animals %: 10%
male, 204.8 mg/kg single i.v., survivors
  Average animal weight (g) End: 26.6 g
male, 256 mg/kg single i.v.
  Average animal weight (g) Beginning: 20.4 g
  Percentage of dead animals %: 40%
male, 256 mg/kg single i.v., survivors
  Average animal weight (g) End: 26.3 g
male, 320 mg/kg single i.v.
  Average animal weight (g) Beginning: 20.1 g
  Percentage of dead animals %: 90%
male, 320 mg/kg single i.v., survivors
  Average animal weight (g) End: 25.0 g
male, 400 mg/kg single i.v.
  Average animal weight (g) Beginning: 20.1 g
  Percentage of dead animals %: 100%
male, male Kunming mice, single i.v., read-out: LD50
  LD50 at 2 weeks: 261 mg/kg
male, male Kunming mice, single i.v., read-out: LD50 (95% CL)
  LD50 at 2 weeks: 230 to 296 mg/kg

— US8334316B2, “Substituted organosulfur compounds and methods of using thereof” (ACEA Biosciences, Inc., priority 2004, dated 2012)
